Reference: patent US20250002526A1, “PHARMACEUTICAL COMPOSITION HAVING ANTI-CANCER IMMUNOSTIMULATING EFFECT AND/OR IMMUNE CHECKPOINT INHIBITION POTENTIATING EFFECT” (KYUSHU UNIVERSITY, NATIONAL UNIVERSITY CORPORATION, priority 2021, published 2025)
Like-named read-outs stand apart in the source and are kept apart here.

Legend:
[1] = biological target: T1, recombinant human SULT2B1b protein (Homo sapiens, UniProt O00204); assay: SULT assay (in vitro SULT2B1b enzymatic activity measurement); assay type: biochemical; details: for activity at 200 µM: test compound 200 μM, relative to DMSO control (100%), read-out: in vitro SULT2B1b assay % activity at 200 μM
T1 sequence (O00204 1-365): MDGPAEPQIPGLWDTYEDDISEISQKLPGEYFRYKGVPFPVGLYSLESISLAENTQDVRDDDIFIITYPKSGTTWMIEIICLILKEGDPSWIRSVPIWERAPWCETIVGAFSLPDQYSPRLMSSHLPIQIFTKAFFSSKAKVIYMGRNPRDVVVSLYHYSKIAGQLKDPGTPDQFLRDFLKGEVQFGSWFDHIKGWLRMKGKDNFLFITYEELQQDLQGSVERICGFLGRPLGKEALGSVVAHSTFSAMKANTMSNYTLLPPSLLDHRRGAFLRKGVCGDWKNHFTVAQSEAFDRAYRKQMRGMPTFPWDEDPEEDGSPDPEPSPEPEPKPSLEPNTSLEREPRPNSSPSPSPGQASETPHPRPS
Protocol: For screening for a SULT2B1b inhibitor, enzymatic activity measurement for SULT2B1b was carried out by a method described in a previous report (NPL 2) with slight modifications.
The reaction solution (50 μl) was composed of 1 to 5 μg of recombinant human SULT2B1b protein, 10 μM [^3H]cholesterol (approximately 4,000 dpm/pmol), 10 mM Tris-HCl (pH 7.5, containing 5 mM MgCl2) containing 0.1 mM 3′-phosphoadenosine 5′-phosphosulfate (PAPS), 0.2 mM 2-hydroxypropyl-β-cyclodextrin, and 5% (v/v) ethanol. Recombinant human SULT2B1b protein was pre-incubated with 1 μl of a test compound (final concentration: 40 or 200 μM) or DMSO (control) at room temperature for 15 minutes, 2 mM PAPS (2.5 μl) was then added to initiate reaction, the resultant was reacted at 37° C. for 15 minutes, and 0.8 ml of ethanol was added to terminate the reaction.
The solution after the reaction was subjected to thin-layer chromatography (TLC) for separation, and then to a liquid scintillation counter to quantify radiolabeled CS.
From the percentage to the amount ([…]) of radiolabeled CS generated through reaction in the absence of the test compound (DMSO) (control), the SULT2B1b activity (% activity) of SULT2B1b protein in the presence of the test compound was evaluated, and the effect of the test compound to inhibit SULT2B1b-mediated CS production (CS production inhibitory effect) was evaluated.
In enzyme assay, SULT assay was performed with use of cholenoic acid as a compound to be tested at different cholesterol and PAPS concentrations (wherein 0.5 to 1 μg of recombinant human SULT2B1b protein was used, the preincubation time and reaction time were each 10 minutes), and the results were fitted to the Michaelis-Menten equation by using Prism 9 (GraphPad Software, Inc.) to perform enzyme kinetic analysis for the inhibition by cholenoic acid.
SULT assay was performed for the compounds as test compounds by the method described in (14) of “II. Experimental procedure” in Experiment Example 1 to evaluate the SULT2B1b inhibitory effects of the compounds.

[2] = test system: SULT2B1b-mediated CS production in E0771-SULT cells; assay: CS production inhibitory effect in E0771-SULT cells (LC/MS/MS quantification of CS); assay type: cell-based, mouse; details: Mus musculus; for activity at 10 µM: relative to control (100%)
Protocol: CS in each human cancer tissue sample was quantified by a method described in NPL 2. To monitor the amounts of CS and/or oxysterol generated in E0771, 3LL, EG.7-OVA, and MC38 cells irrespective of the presence or absence of SULT2B1b expression, cells of each type were seeded in a 6-well plate at 5×10^5 cells/well, and the culture supernatant and cell pellet were collected after 24 hours. Subsequently, deuterium-labeled internal standard (IS) compounds (d7-CS [[…]] and d6-25-hydroxycholesterol) were added to fractions of the culture supernatant and cell pellet, each of which was subjected to extraction with 1 mL of extraction solvent (methanol/chloroform/water=5:2:2 [v/v/v]) to extract CS and oxysterol from the culture supernatant or cell pellet.
Each sample was vigorously mixed with a vortex for 1 minute, and then ultrasonicated for 5 minutes. Thereafter, the sample was centrifuged at 16,000×g and 4° C. for 5 minutes, and the supernatant (700 μl) was collected in a clean tube. Into this, 235 μl of chloroform and 155 μl of water were added and mixed, and the resultant was then subjected to vortexing followed by centrifugation to separate into an aqueous layer and an organic layer. Subsequently, 200 μl of the lowermost layer was dried under a nitrogen flow.
The dried sample was dissolved in 50 μl of methanol, and CS and oxysterol therein were quantified by liquid chromatography-tandem mass spectrometry (LC/MS/MS) with a triple quadrupole mass spectrometer (LCMS-8060; Shimadzu Corporation) equipped with an electrospray ionization (ESI) ion source in a multiple reaction monitoring (MRM) mode.
• Column: Inertsil ODS-4 (2.1×150 mm; particle size: 3 μm; GL Sciences Inc.) • Column temperature: 40° C. • Flow rate: 0.3 ml/min • Mobile phase: (A) water/acetonitrile (1:2, v/v) containing 5 mM ammonium acetate (B) Methanol/Isopropanol (1:19, v/v) Containing 5 mM Ammonium Acetate • Gradient curve: 0 min→22 min: (B) 0%→100%, • 22 min→27 min: (B) 100%, • 27 min→27.1 min: (B) 100%→0%, • 27.1 min→30 min: (B) 0% • Injection volume: 5 μl • Mass spectrometry mode: positive and negative ion modes • Electrospray voltage: 4 kV in positive ion mode, −3.5 kV in negative ion mode • Nebulizer gas flow rate: 3.0 L/min • Drying gas flow rate: 10.0 L/min • Desolvation temperature: 250° C. • Heat block temperature: 400° C. • Detector voltage: 2.16 kV • Used were MRM mode and 2 msec of dwell time per channel.
Absolute CS and oxysterol contents were calculated from calibration curves. MRM calibration curves were prepared with chromatographic peak areas for the analytes relative to peak areas for internal standards through three times of analysis for standard solutions.
The CS production effects of test compounds (compounds 1 to 19, 21, 23, 25, and 27 to 32) were evaluated with the mouse breast cancer cell line E0771 expressing SULT2B1b (E0771-SULT cells).
Specifically, as in the above description in experimental procedure (12), E0771-SULT cells were seeded in a 6-well plate at a proportion of 5×10^5 cells/well, and cultured in the presence or absence (control) of each test compound for 24 hours. After culturing, CS generated in E0771-SULT cells was quantified by LC/MS/MS according to the description in experimental procedure (12). The CS production capacity (% activity) of cells cultured in the presence of each test compound was evaluated from the percentage relative to the CS production level (control) (100%) in E0771-SULT cells cultured in the absence of the test compound, and the CS production inhibitory effect of the test compound was evaluated.

[3] = 24 h, read-out: CS production % activity at 10 μM, E0771-SULT cells, 24 hours, test compound 10 μM (Table 1)

Row | Compound | activity at 200 µM [1] | activity at 10 µM [2, 3] | IC50 ([1]; recombinant human SULT2B1b, read-out: IC50 value (enzyme assay)) | activity at 10 µM ([2]; 24 h, read-out: CS production % activity at 10 μM, E0771-SULT cells, 24 hours, third concentration column of Table 1, head again printed 10 μM) | activity at 20 µM ([2]; 24 h, read-out: CS production % activity at 20 μM, E0771-SULT cells, 24 hours, test compound 20 μM, relative to control without compound (100%)) | IC50 ([2]; read-out: IC50 value (CS production))
1 | C[C@H](CCC(=O)N1CCOCC1)[C@H]1CC[C@H]2[C@@H]3CC=C4C[C@H](N=[N+]=[N-])CC[C@]4(C)[C@H]3CC[C@]12C [Compound 12, (R)-4-((3R,8S,9S,10R,13R,14S,17R)-3-azido-10,13-dimethyl-2,3,4,7,8,9,10,11,12,13,14,15,16,17-tetradecahydro-1H-cyclopenta[a]phenanthren-17-yl)-1-morpholinopentan-1-one] | 8.3% | 98.4% |  |  |  | 
2 | CC(=O)OC1CCC2(C)C(=CCC3C2CCC2(C)C(C(C)CCC(=O)O)CCC32)C1 (centres unmarked) [Compound 17, 3-acetoxy-5-cholenoic acid] | 66.4% | 43.7% | 186 µM | 44.9% | 52.4% | 7 µM
